Test results: patent publication US12521390B2, “Dosage forms for Tyk2 inhibitors” (Bristol-Myers Squibb Company, priority 2019, dated 2026)

Legend:
[1] = Solubility of BMS-986165 crystalline free base as a function of pH; format: physicochemical; settings: pHs>4
[2] = Chemical stability (related substances) of BMS-986165:HPMCAS-H SDDs on storage; format: physicochemical; settings: API standard, no storage condition
Description: Lots of 25% w/w BMS-986165 SDD with HPMCAS-H were assessed for physical and chemical stability. […] Dissolution performance in the microcentrifuge test was unchanged.
There was no evidence of crystallization by PXRD in any SDD after storage for up to 6 months at 40° C./75% RH open (FIG. 1A and FIG. 1B). DSC data indicated slight changes similar to those observed in 25% w/w BMS-986165 SDD after exposure to 50° C./75% RH or 40° C./75% RH but there was no trend with API loading and the results were considered to reflect an “ageing” or “annealing” effect rather than crystal formation. Scanning electron microscopy (SEM) images confirmed the presence of a single phase homogenous dispersion (FIG. 2A-C, FIG. 3A-C, FIG. 4A-C).

[2H]C([2H])([2H])NC(=O)c1nnc(NC(=O)C2CC2)cc1Nc1cccc(-c2ncn(C)n2)c1OC [BMS-986165 crystalline free base, 6-(cyclopropaneamido)-4-((2-methoxy-3-(1-methyl-1H-1,2,4-triazol-3-yl)phenyl)amino)-N-(methyl-d3)pyridazine-3-carboxamide]
solubility [1]: low

[2H]C([2H])([2H])NC(=O)c1nnc(NC(=O)C2CC2)cc1Nc1cccc(-c2ncn(C)n2)c1OC [BMS-986165, 6-(cyclopropaneamido)-4-((2-methoxy-3-(1-methyl-1H-1,2,4-triazol-3-yl)phenyl)amino)-N-(methyl-d3)pyridazine-3-carboxamide]
BMS-986165 (related substances, relative ret. time 1.00) [2]: 99.48 | Total impurities >LOQ [2]: 0.52%
